Experiments:
[1] = main metabolites in man, present in plasma and urine; cited from earlier work
rat stomachs = test: Gastric emptying in the rat model (phenol red method); format: in vivo, Male Wistar rats; conditions: mean ± SEM
Protocol: This study aimed to investigate the prokinetic effects of Mesdopetam, a dopamine receptor antagonist, on rat stomachs by assessing gastric emptying at three different doses: 1.24 mg/kg, 2.48 mg/kg, and 3.72 mg/kg. Male Wistar rats were used as the animal model. Gastric emptying time was measured at specific time intervals post-administration, and the results were compared to determine the impact of Mesdopetam on gastric motility.
• Animal Model: Male Wistar rats (250-300 g) were used for the study. • Drug Administration: Mesdopetam was administered orally to rats at three different doses: 1.24 mg/kg, 2.48 mg/kg, and 3.72 mg/kg. The control group received a placebo. • Experimental Groups: Rats were divided into four groups: control (receiving placebo) and three treatment groups (receiving Mesdopetam at the respective doses). • Measurement of Gastric Emptying: Gastric emptying time was measured using a non-invasive method, such as the phenol red method. Rats were fasted overnight before the experiment, and the drug was administered following the fasting period. • Data Collection: Gastric emptying time was recorded at specific time points post-treatment: 1 hour, 2 hours, 4 hours, and 8 hours. • Statistical Analysis: The data were analyzed using appropriate statistical tests (e.g., one-way ANOVA followed by post hoc tests) to determine significant differences in gastric emptying time between the control and treatment groups at each dose level.
The results of the study are presented as mean gastric emptying time (in minutes) for each group at different time points post-treatment: […]

[2] = target: dopamine D3 receptor (D3R) (Homo sapiens, UniProt P35462); conditions: antagonist; cited from earlier work
Chain of dopamine D3 receptor (D3R) (P35462 whole entry): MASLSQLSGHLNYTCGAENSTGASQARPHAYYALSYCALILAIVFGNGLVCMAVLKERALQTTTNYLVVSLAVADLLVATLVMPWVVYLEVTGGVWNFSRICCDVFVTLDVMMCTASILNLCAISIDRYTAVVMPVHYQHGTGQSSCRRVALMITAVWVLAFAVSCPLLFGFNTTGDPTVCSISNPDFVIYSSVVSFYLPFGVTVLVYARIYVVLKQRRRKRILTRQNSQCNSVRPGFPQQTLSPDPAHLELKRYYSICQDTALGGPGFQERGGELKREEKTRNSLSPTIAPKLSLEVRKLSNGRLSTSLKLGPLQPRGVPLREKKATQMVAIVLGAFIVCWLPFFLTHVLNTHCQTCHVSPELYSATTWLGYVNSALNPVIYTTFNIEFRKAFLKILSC

[3] = cited from earlier work

CS(=O)(=O)c1cc(F)cc(OCCN)c1 [M1]
pharmacological activity of metabolite [1]: pharmacologically inactive

CC(=O)NCCOc1cc(F)cc(S(C)(=O)=O)c1 [M2]
pharmacological activity of metabolite [1]: pharmacologically inactive

CCCNCCOc1cc(F)cc(S(C)(=O)=O)c1 [Mesdopetam, [2-(3-fluoro-5-methylsulfonylphenoxy)ethyl]propan-1-amine]
mean gastric emptying time (rat stomachs; 1.24 mg/kg oral, 1 hour post-treatment): 38.5 ± 1.8 min | mean gastric emptying time (rat stomachs; 1.24 mg/kg oral, 2 hours post-treatment): 32.4 ± 1.5 min | mean gastric emptying time (rat stomachs; 1.24 mg/kg oral, 4 hours post-treatment): 27.9 ± 1.3 min | mean gastric emptying time (rat stomachs; 1.24 mg/kg oral, 8 hours post-treatment): 24.6 ± 1.1 min | mean gastric emptying time (rat stomachs; 2.48 mg/kg oral, 1 hour post-treatment): 32.1 ± 1.6 min | mean gastric emptying time (rat stomachs; 2.48 mg/kg oral, 2 hours post-treatment): 26.9 ± 1.4 min | mean gastric emptying time (rat stomachs; 2.48 mg/kg oral, 4 hours post-treatment): 23.4 ± 1.2 min | mean gastric emptying time (rat stomachs; 2.48 mg/kg oral, 8 hours post-treatment): 19.8 ± 1.0 min | mean gastric emptying time (rat stomachs; 3.72 mg/kg oral, 1 hour post-treatment): 29.6 ± 1.4 min | mean gastric emptying time (rat stomachs; 3.72 mg/kg oral, 2 hours post-treatment): 23.8 ± 1.2 min | mean gastric emptying time (rat stomachs; 3.72 mg/kg oral, 4 hours post-treatment): 20.3 ± 1.0 min | mean gastric emptying time (rat stomachs; 3.72 mg/kg oral, 8 hours post-treatment): 17.5 ± 0.9 min | Ki [2]: ~90 nM

CCN(CC)CCNC(=O)c1cc(Cl)c(N)cc1OC [metoclopramide]
incidence of extrapyramidal reactions ([3]; aged and young patients): ≤ 25% | reported incidence of extrapyramidal reactions ([3]; overall): 0.2%
